In US20240148835A1, “TREATING DISORDERS ASSOCIATED WITH DYRK1A DYSFUNCTION” (UNIVERSITY OF FLORIDA RESEARCH FOUNDATION, INCORPORATED, priority 2021, published 2024):
“Also recorded” adds a separate entry of the source.

Test system: neonatal cHets
Assay: Neonatal GSK3 inhibitor SB216763 treatment: cortex mass, isotropic fractionator cell number and density
Format: in vivo, mouse
Description: We utilized the previously mentioned neonatal paradigm to inject cHets daily with GSK3 inhibitor SB216763 or vehicle from P0 to P7 (FIG. 25A).
(1-3)IGF-1 was acquired from VWR/Bachem (catalog #H-2468.1000) and dissolved in saline with 0.01% BSA fresh every day. Intraperitoneal injections of 10 mg kg′ (1-3)IGF-1 or vehicle were delivered daily at 8 a.m. starting on P14 and ending on P85. […] The S6K1 inhibitor PF-4708671 was acquired from Medkoo Biosciences (#406432) dissolved in 10% DMSO, 10% tween 80 and 80% water. (1-3)IGF-1 (10 mg kg′) and PF-4708671 (50 mg kg^−1) or vehicle were injected subcutaneously into pups from P0 to P7. Rapamycin was acquired from LC laboratories (R-5000) and dissolved in 4% ethanol, 5% tween-80, and 5% PEG400 in PBS. (1-3)IGF-1 (10 mg kg′) and Rapamycin (1 mg kg′) or vehicle were injected subcutaneously into pups from P0 to P7. SB216763 was acquired from TOCRIS (#1616) and dissolved in 5% DMSO and 0.9% saline in dH20. SB216763 (0.5 mg kg′) was injected subcutaneously into pups from P0 to P7.
Adult animals were perfused with 4% PFA, and pups underwent rapid decapitation and dissection. Brains were fixed in 4% PFA for one week, and then the cortex was dissected out and dissociated in a 7 ml glass tissue homogenizer (Kontes Glass) in dissociation buffer (1% Triton X-100 in 40 mM sodium citrate). 1 ml of nuclei was removed and stained with 1:50 DAPI (Invitrogen, catalog #D3571) before being loaded onto a hemocytometer (Fisher Scientific, catalog #0267110). Per animal, 6 technical replicates of 10 μl nuclei were imaged and counted in the hemocytometer (0.1 μl nuclei counted per technical replicate). After calculating the total cell number per cortex, the number of cells was divided by mg of cortex to obtain density.

[1] = 0.5 mg kg subcutaneous daily P0 to P7

Cn1cc(C2=C(c3ccc(Cl)cc3Cl)C(=O)NC2=O)c2ccccc21 [SB216763]
cellular density [1]: no effect on cellular density; also recorded: unaltered by any genotype or treatment | cortex mass of controls [1]: no effect; also recorded: unaltered by treatment | cortical cell number of cHets [1]: restored the decreased cellular number; also recorded: restored by SB216763 treatment | cortical cell number of controls [1]: no effect on SB216763-treated controls | cortex mass of cHets (0.5 mg kg subcutaneous daily P0 to P7, vs vehicle-treated controls): normalized cortex mass; also recorded: restored by treatment with SB216763
